In the NIST ThermoML archive (doi:10.1016/j.jct.2008.01.007):

Assay: xn = mol fraction of the nth substance listed
Conditions: 101 kPa, Liquid

OCCN1CCOCC1 [4-morpholineethanol] + O
Conditions | mass density, 313.15 K [kg/m3] | mass density, 323.15 K [kg/m3] | mass density, 333.15 K [kg/m3] | viscosity, 313.15 K [mPa·s] | viscosity, 323.15 K [mPa·s] | viscosity, 333.15 K [mPa·s]
x1 = 0.0628 | – | 1017.66 | 1012.27 | – | 6.767 | 4.413
x1 = 0.1126 | – | 1035.57 | 1029.49 | – | 11.37 | 9.233
x1 = 0.1985 | – | 1052.34 | 1044.12 | – | 17.84 | 13.91
x1 = 0.2466 | – | 1057.12 | 1048.47 | – | – | –
x1 = 0.2887 | – | 1059.03 | 1050.37 | – | 23.09 | 17.82
x1 = 0.3459 | – | 1060.61 | 1051.89 | – | 25.45 | 19.93
x1 = 0.4127 | – | 1061.07 | 1052.63 | – | 25.94 | 20.12
x1 = 0.4852 | – | 1060.28 | 1052.39 | – | 25.4 | 19.72
x1 = 0.5438 | 1066.2 | 1058.66 | 1051.46 | – | – | –
x1 = 0.5842 | 1065.37 | 1057.87 | 1050.71 | 29.62 | 23.17 | 18.58
x1 = 0.6438 | 1063.85 | 1056.41 | 1049.64 | 28.05 | 21.34 | 16.15
x1 = 0.6878 | 1062.67 | 1055.27 | 1048.84 | – | – | –
x1 = 0.7439 | 1061.41 | 1054.22 | 1047.82 | 25.58 | 19.58 | 14.06
x1 = 0.8238 | 1060.06 | 1053.44 | 1047.09 | 23.38 | 18.01 | 12.67
x1 = 0.8846 | 1059.5 | 1052.95 | 1046.7 | 22.16 | 16.98 | 11.26
x1 = 0.9486 | 1059.41 | 1052.79 | 1046.54 | – | – | –
x1 = 1 | 1059.19 | 1052.64 | 1046.43 | 17.32 | 12.86 | 8.284
